Reference: ChEMBL document CHEMBL1157520, “Abietane diterpenoids from the bark of Cryptomeria fortunei” (2008)

Columns and labels:
Assay type in all cases: functional
[1] = tested on: HL-60; experiment: Antitumor activity against human HL60 cells at 10^-8 mol/l by MTT assay
[2] = tested on: HL-60; experiment: Antitumor activity against human HL60 cells at 10^-5 mol/l by MTT assay
[3] = tested on: HL-60; experiment: Antitumor activity against human HL60 cells at 10^-7 mol/l by MTT assay
[4] = tested on: HL-60; experiment: Antitumor activity against human HL60 cells at 10^-6 mol/l by MTT assay
[5] = tested on: HL-60; experiment: Antitumor activity against human HL60 cells at 10^-4 mol/l by MTT assay
[6] = tested on: A549; experiment: Antitumor activity against human A549 cells at 10^-4 mol/l by SRB assay
[7] = tested on: A549; experiment: Antitumor activity against human A549 cells at 10^-5 mol/l by SRB assay
[8] = tested on: A549; experiment: Antitumor activity against human A549 cells at 10^-8 mol/l by SRB assay
[9] = tested on: A549; experiment: Antitumor activity against human A549 cells at 10^-6 mol/l by SRB assay
[10] = tested on: A549; experiment: Antitumor activity against human A549 cells at 10^-7 mol/l by SRB assay

| Structure (SMILES) | Activity [1] | Activity [2] | Activity [3] | Activity [4] | Activity [5] | Activity [6] | Activity [7] | Activity [8] | Activity [9] | Activity [10] |
| --- | --- | --- | --- | --- | --- | --- | --- | --- | --- | --- |
| CC(C)c1cc2c(cc1O)[C@@]1(C)CCCC(C)(C)C1=C(O)C2=O | 8.3% | 54.4% | 11.9% | 11.9% | 55.4% |  |  |  |  |  |
| CC(C)c1cc2c(c(O)c1O)[C@@]1(C)CCCC(C)(C)C1=C(O)C2=O [14-DEOXYCOLEON U] | 8.4% | 53.6% | 13.9% | 11.5% | 50.6% | 50.6% | 53.6% | 8.4% | 11.5% | 13.9% |
| COc1c(C(C)C)cc2c(c1O)[C@@]1(C)CCCC(C)(C)[C@@H]1[C@@H](O)[C@@H]2OC [FORTUNIN C] | 9.3% | 56.2% | 10.8% | 14.4% | 58.5% |  |  |  |  |  |
